# Reference: ChEMBL document CHEMBL5096221, “Discovery of a Highly Potent and Orally Bioavailable STAT3 Dual Phosphorylation Inhibitor for Pancreatic Cancer Treatment” (J Med Chem, 2022)
# pIC50: −log10 of the molar value. Calls of active or inactive are those of the source. The rule behind the calls is not given here.
# Assays:
# [1] = Microsomal stability in dog liver microsomes assessed as compound remaining incubated for 60 mins in presence of NADPH by LC-MS/MS analysis; format: ADME, Canis lupus familiaris, Microsome; details: read-out: Stability
# [2] = biological target: Cytochrome P450 2C9 (Homo sapiens, UniProt P11712); experiment: Inhibition of CYP2C9 in human liver microsomes using tolbutamide as substrate incubated for 60 mins in presence of NADPH by HPLC analysis; format: ADME, Microsome
# Sequence of Cytochrome P450 2C9 (P11712 whole entry): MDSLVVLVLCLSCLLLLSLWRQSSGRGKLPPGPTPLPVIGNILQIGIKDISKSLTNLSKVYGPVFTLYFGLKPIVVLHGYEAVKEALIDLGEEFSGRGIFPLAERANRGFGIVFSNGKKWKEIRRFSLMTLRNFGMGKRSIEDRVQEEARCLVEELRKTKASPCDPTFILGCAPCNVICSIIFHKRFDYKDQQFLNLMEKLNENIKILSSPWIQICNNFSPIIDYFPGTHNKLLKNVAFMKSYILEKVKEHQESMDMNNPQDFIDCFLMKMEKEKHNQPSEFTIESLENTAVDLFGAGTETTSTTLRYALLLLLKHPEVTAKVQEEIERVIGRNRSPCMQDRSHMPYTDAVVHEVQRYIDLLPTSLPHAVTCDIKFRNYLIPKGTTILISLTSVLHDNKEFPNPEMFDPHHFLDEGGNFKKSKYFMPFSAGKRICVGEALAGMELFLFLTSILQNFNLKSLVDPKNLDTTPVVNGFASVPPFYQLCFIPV
# [3] = Half life in BALB/c mouse at 1 mg/kg,iv measured upto 24 hrs by LC-MS/MS analysis; format: ADME, organism-based; details: in vivo
# [4] = test system: Mus musculus; experiment: In vivo inhibition of STAT3 in BALB/c mouse xenografted with human BXPC-3 cells assessed as inhibition of STAT3 phosphorylation at Tyr 705 at 10 mg/kg,po administrated once daily for 8 weeks by immunohistochemical analysis; format: functional, organism-based
# [5] = Toxicity in BALB/c mouse xenografted with human BXPC-3 cells assessed as effect on lung at 30 mg/kg,po administrated once daily for 8 weeks by H and E staining based microscopic analysis; format: organism-based; details: in vivo, 1344 h
# [6] = biological target: Proto-oncogene tyrosine-protein kinase Src (Homo sapiens, UniProt P12931); experiment: Inhibition of SRC (unknown origin)
# Sequence of Proto-oncogene tyrosine-protein kinase Src (P12931 2-536 limits assumed): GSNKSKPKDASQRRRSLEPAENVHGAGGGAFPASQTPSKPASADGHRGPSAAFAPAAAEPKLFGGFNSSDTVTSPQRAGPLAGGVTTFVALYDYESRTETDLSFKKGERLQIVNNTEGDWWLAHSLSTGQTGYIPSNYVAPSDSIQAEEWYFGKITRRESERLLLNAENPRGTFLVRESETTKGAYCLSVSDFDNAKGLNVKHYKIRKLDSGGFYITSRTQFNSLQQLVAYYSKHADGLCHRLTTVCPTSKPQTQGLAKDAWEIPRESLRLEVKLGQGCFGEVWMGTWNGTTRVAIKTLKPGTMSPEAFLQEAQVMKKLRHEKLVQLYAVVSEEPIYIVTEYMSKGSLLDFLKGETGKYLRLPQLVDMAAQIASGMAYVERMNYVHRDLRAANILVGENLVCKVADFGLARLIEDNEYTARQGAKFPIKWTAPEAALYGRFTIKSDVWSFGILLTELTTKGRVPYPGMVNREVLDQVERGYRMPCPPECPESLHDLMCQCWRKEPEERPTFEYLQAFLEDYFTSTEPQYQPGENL
# [7] = biological target: T1, Signal transducer and activator of transcription 3 (Homo sapiens, UniProt P40763); experiment: Inhibition of STAT3 in human Capan-2 cells assessed as reduction of Cyclin D1 expression at 30 nM incubated for 4 to 24 hrs by western blot analysis; format: cell-based; details: time 4-24 hrs, TDE = time-dependent effect
# T1 sequence (P40763 whole entry): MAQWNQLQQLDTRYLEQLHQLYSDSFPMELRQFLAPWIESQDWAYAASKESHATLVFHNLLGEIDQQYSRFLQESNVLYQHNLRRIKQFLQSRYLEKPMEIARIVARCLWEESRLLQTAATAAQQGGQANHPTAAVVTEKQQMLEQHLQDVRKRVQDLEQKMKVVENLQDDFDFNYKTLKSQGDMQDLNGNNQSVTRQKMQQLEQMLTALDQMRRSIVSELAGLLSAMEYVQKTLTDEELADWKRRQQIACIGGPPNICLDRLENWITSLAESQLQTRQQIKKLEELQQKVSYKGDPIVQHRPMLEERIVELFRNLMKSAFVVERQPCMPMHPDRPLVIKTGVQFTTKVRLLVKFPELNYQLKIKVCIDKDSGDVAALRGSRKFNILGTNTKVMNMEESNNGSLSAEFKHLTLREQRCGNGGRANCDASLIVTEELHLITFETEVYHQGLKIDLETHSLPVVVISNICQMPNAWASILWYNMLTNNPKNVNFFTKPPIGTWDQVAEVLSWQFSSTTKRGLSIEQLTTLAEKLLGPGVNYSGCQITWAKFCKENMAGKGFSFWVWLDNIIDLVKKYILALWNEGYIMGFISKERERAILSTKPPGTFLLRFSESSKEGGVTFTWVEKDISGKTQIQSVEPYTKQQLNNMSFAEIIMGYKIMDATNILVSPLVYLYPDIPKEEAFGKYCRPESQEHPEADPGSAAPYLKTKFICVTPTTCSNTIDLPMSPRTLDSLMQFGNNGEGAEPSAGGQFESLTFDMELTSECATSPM
# [8] = biological target: T1, Signal transducer and activator of transcription 3; experiment: Thermal stabilization of STAT3 in human BXPC-3 cells at 10 microM at 44.6 degreeC incubated for 1 hrs by cellular thermal shift assay; format: cell-based
# [9] = biological target: T1, Signal transducer and activator of transcription 3; experiment: Inhibition of STAT3 in human BXPC-3 cells assessed as inhibition of STAT3 phosphorylation at Tyr 705 at 1 to 30 nM incubated for 22 to 24 hrs by western blot analysis; format: cell-based; details: dose 1-30 nM, time 22-24 hrs, DDE = dose-dependent effect
# [10] = biological target: T1, Signal transducer and activator of transcription 3; experiment: Inhibition of STAT3 in human Capan-2 cells assessed as reduction of c-Myc expression at 30 nM incubated for 4 to 24 hrs by western blot analysis; format: cell-based; details: time 4-24 hrs, TDE = time-dependent effect
# [11] = Microsomal stability in human liver microsomes assessed as half life incubated upto 40 mins in presence of NADPH by LC-MS/MS analysis; format: ADME, Microsome
# [12] = biological target: T1, Signal transducer and activator of transcription 3; experiment: Inhibition of STAT3 in human BXPC-3 cells assessed as reduction of Cyclin D1 expression at 30 nM incubated for 4 to 24 hrs by western blot analysis; format: cell-based; details: time 4-24 hrs, TDE = time-dependent effect
# [13] = Toxicity in BALB/c mouse xenografted with human BXPC-3 cells assessed as effect on lung at 10 mg/kg,po administrated once daily for 8 weeks by H and E staining based microscopic analysis; format: organism-based; details: in vivo, 1344 h
# [14] = biological target: T1, Signal transducer and activator of transcription 3; experiment: Inhibition of STAT3 in human BXPC-3 cells assessed as reduction of Cyclin D1 expression at 1 to 30 nM incubated for 22 to 24 hrs by western blot analysis; format: cell-based; details: dose 1-30 nM, time 22-24 hrs, DDE = dose-dependent effect
# [15] = Oral bioavailability in BALB/c mouse at 10 mg/kg,po measured upto 24 hrs by LC-MS/MS analysis; format: ADME, organism-based; details: in vivo
# [16] = Microsomal stability in dog liver microsomes assessed as intrinsic clearance incubated upto 40 mins in presence of NADPH by LC-MS/MS analysis; format: ADME, Canis lupus familiaris, Microsome; details: read-out: CLH
# [17] = Toxicity in BALB/c mouse xenografted with human BXPC-3 cells assessed as effect on kidney at 10 mg/kg,po administrated once daily for 8 weeks by H and E staining based microscopic analysis; format: organism-based; details: in vivo, 1344 h
# [18] = test system: CFPAC-1; experiment: Inhibition of mitochondrial respiration in human CFPAC-1 cells assessed as reduction in basal respiration rate at 1 to 30 nM incubated for 1 hr by seahorse XF96 flux analyzer; format: functional, cell-based; details: dose 1-30 nM, DDE = dose-dependent effect
# [19] = biological target: T1, Signal transducer and activator of transcription 3; experiment: Inhibition of STAT3 in human BXPC-3 cells assessed as inhibition of STAT3 phosphorylation at Tyr 705 at 30 nM incubated for 4 to 24 hrs by western blot analysis; format: cell-based; details: time 4-24 hrs, TDE = time-dependent effect
# [20] = Microsomal stability in rat liver microsomes assessed as half life incubated upto 40 mins in presence of NADPH by LC-MS/MS analysis; format: ADME, Microsome
# [21] = biological target: T1, Signal transducer and activator of transcription 3; experiment: Inhibition of STAT3 in human Capan-2 cells assessed as inhibition of STAT3 phosphorylation at Tyr 705 at 1 to 30 nM incubated for 22 to 24 hrs by western blot analysis; format: cell-based; details: dose 1-30 nM, time 22-24 hrs, DDE = dose-dependent effect
# [22] = Toxicity in BALB/c mouse xenografted with human BXPC-3 cells assessed as body weight change at 10 mg/kg,po administrated once daily for 8 weeks; format: organism-based; details: in vivo, 1344 h
# [23] = biological target: T1, Signal transducer and activator of transcription 3; experiment: Inhibition of STAT3 in human Capan-2 cells assessed as inhibition of IL-6 stimulated STAT3 phosphorylation at Tyr 705 at 1 to 30 nM by western blot assay; format: cell-based; details: dose 1-30 nM, DDE = dose-dependent effect
# [24] = biological target: T1, Signal transducer and activator of transcription 3; experiment: Inhibition of STAT3 in human Capan-2 cells assessed as reduction of c-Myc expression at 1 to 30 nM incubated for 22 to 24 hrs by western blot analysis; format: cell-based; details: dose 1-30 nM, time 22-24 hrs, DDE = dose-dependent effect
# [25] = test system: BXPC-3; experiment: Inhibition of mitochondrial respiration in human BXPC-3 cells assessed as reduction in maximal respiration rate at 1 to 30 nM incubated for 1 hr by seahorse XF96 flux analyzer; format: functional, cell-based; details: dose 1-30 nM, DDE = dose-dependent effect
# [26] = AUC (0-24hrs) in BALB/c mouse at 10 mg/kg,po measured upto 24 hrs by LC-MS/MS analysis; format: ADME, organism-based; parameters: dose 10 mg/kg, time < 24 hrs, route po; details: in vivo
# [27] = biological target: T2, Mitogen-activated protein kinase 13 (Homo sapiens, UniProt O15264); experiment: Inhibition of p38delta (unknown origin)
# T2 sequence (O15264 whole entry): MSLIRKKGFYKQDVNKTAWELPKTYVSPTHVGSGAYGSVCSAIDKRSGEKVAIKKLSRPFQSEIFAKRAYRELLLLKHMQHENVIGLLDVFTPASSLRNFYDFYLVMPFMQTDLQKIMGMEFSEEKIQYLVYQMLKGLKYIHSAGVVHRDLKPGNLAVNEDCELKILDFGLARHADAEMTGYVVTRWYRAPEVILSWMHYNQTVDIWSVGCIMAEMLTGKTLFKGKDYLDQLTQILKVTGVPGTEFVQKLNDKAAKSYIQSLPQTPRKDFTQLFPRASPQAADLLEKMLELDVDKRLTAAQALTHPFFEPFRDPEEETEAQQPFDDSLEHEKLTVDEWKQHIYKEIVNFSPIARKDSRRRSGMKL
# [28] = Cmax in BALB/c mouse at 1 mg/kg,iv measured upto 24 hrs by LC-MS/MS analysis; format: ADME, organism-based; parameters: dose 1 mg/kg, time < 24 hrs, route iv; details: in vivo
# [29] = test system: BXPC-3; experiment: Inhibition of colony formation in human BXPC-3 cells at 3 to 10 nM incubated for 5 to 7 days by crystal violet staining assay; format: functional, cell-based; details: dose 3-10 nM, time 5-7 day, DDE = dose-dependent effect
# [30] = AUC (0-infinity) in BALB/c mouse at 10 mg/kg,po measured upto 24 hrs by LC-MS/MS analysis; format: ADME, organism-based; parameters: time < 24 hrs, dose 10 mg/kg, route po; details: in vivo
# [31] = Clearance at steady state in BALB/c mouse at 1 mg/kg,iv measured upto 24 hrs by LC-MS/MS analysis; format: ADME, organism-based; details: BALB/c, in vivo
# [32] = test system: CFPAC-1; experiment: Inhibition of mitochondrial respiration in human CFPAC-1 cells at 1 to 30 nM incubated for 1 hr by seahorse XF96 flux analyzer; format: functional, cell-based; details: dose 1-30 nM, DDE = dose-dependent effect
smiles,measurement,setting,value
COc1ccc(-c2noc(-c3cnc(Oc4ccc5cc(C(=O)N6CCN(Cc7ccc(OCC(F)(F)F)cc7)CC6)n(C)c5c4)cn3)n2)cc1,remaining at 1 h,[1],55.8%
same,pIC50,[2],< 4.30
same,half-life,[3],10.2 h
same,inhibition,[4],Active
same,Activity,[5],Non-Toxic
same,pIC50,[6],< 5.00
same,inhibition,[7],Tde
same,Activity,[8],Active
same,inhibition,[9],Dde
same,inhibition,[10],Tde
same,half-life,[11],1.26 h
same,inhibition,[12],Tde
same,Activity,[13],Non-Toxic
same,inhibition,[14],Dde
same,bioavailability,[15],29.1%
same,microsomal CLint,[16],18.4 µL/min/mg
same,Activity,[17],Non-Toxic
same,inhibition,[18],Dde
same,inhibition,[19],Tde
same,half-life,[20],1.37 h
same,inhibition,[21],Dde
same,Activity,[22],Non-Toxic
same,inhibition,[23],Dde
same,inhibition,[24],Dde
same,inhibition,[25],Dde
same,AUC(0-t) at 24 h,[26],27600 ng·h/mL
same,pIC50,[27],< 5.00
same,Cmax,[28],2570 ng/mL
same,inhibition,[29],Dde
same,AUC(0-inf),[30],34900 ng·h/mL
same,clearance,[31],1.43 mL/min/kg
same,inhibition,[32],Dde
